From US7910579B2, “Benzoxazole derivatives” (Tohoku University, priority 2006, dated 2011) come the findings set out here.

Like-named read-outs stand apart in the source and are kept apart here.

For data set [1], the system named is histidine-requiring Salmonella typhimurium TA100 and TA98 strains. In words: Mutagenicity Test (reverse mutation test). It counts as cell-based. Conditions: for Relative activity (mutagenicity): irrespective of the absence or presence of S9mix; for Relative Activity in the presence of S9Mix / Relative Activity in the absence of S9Mix: reverse mutation test. On the procedure: In view of their use, it is desirable that the compounds of the invention have no mutagenicity or have little mutagenicity to a level causing no problem. For investigating the gene mutagenesis of the compounds of the invention, herein carried out was a reverse mutation test with histidine-requiring Salmonella typhimurium TA100 and TA98 strains. Two tests were carried out. One is a test for dose determination test; and the other is for mutagenicity.
The test methods and the mutagenicity of the compounds of the invention are mentioned below. In the dose determination test, six doses of 0.160, 0.800, 4.00, 20.0, 100 and 500 μg/plate (common ratio 5) were tried.
As a result of the dose determination test, when the mutagenicity of the test compound was admitted, then the actual test for mutagenicity was carried out, using the dose capable of giving an accurate dose-reaction curve. When no mutagenicity of the test compound was admitted in the dose determination test and when the growth inhibition of the test cells was admitted therein, then the dose to present the growth inhibition was taken as the maximum dose; and when the growth inhibition was not admitted, then a dose of 5000 μg/plate was taken as the maximum dose. With that, the actual test for mutagenicity was carried out on the level of 6 doses (common ratio 2).
First, a test compound was dissolved or suspended in DMSO, then diluted in order to prepare test compound liquids having a varying concentration.
100 μl of a test compound liquid or a negative control (DMSO) solution was put into a sterilized test tube. Then, for the case in the absence of a metabolic activation system (−S9mix), 500 μl of 0.1 mol/liter sodium-phosphate buffer (pH 7.4) was added to it; and for the case in the presence of a metabolic activation system (+S9mix), 500 μl of S9mix was added to it.
Next, 100 μl of the test strain suspension that had been cultivated with shaking at 37° C. for 8 hours was added to it, and preincubated in a shaking thermostat at 37° C. for 20 minutes. After shaken, 2 ml of top agar was added to it, and the contents were mixed.
Next, the mixture was poured onto a minimal glucose agar plate medium (plate) and spread uniformly thereon, then the top agar was solidified, and the plate was transferred into a thermostat and incubated at 37° C. for 48 hours.
Then, the number of the colonies grown through reverse mutation was counted.
For counting it, […]. After area correction and miss-counting correction, the number of the colonies was computed. When the colony analyzer could not be used owing to the deposition of the test compound or the cell growth inhibition, then the number of the colonies was counted with the naked eye.
In case where the number of the colonies through reverse mutation increased two times or more that of the negative control and where the dose dependency or the reproducibility of the increase was admitted, then the tested sample was decided as positive. When the sample was is decided as positive, then the relative activity that indicates the relative comparative value of the intensity of the mutagenicity of the test compound was obtained according to the following formula: Relative Activity={(number of colonies per plate having the concentration)−(number of colonies per negative control plate)}/the value of concentration (mg/plate).

A further data set has as its target T1, Amyloid β protein 1-40 (Homo sapiens, UniProt P05067).
T1 construct: Amyloid β protein 1-40 (bought from Peptide Laboratory); purchased Peptide Laboratory
The experiment in a line: Fluorescence Congo Red Method. The format is binding. Conditions: compound 10 μM, amyloid β protein 5 μM; for activity at 10 µM: 1 h. On the procedure: Next described is a screening method for the compounds of the invention. Some of the compounds of the invention could not be screened according to a Thioflavin T method, since their fluorescence wavelength overlaps with that of Thioflavin T. For such compounds, the following novel screening method was introduced. (1) Amyloid β protein 1-40 (bought from Peptide Laboratory) was dissolved in a phosphate buffer (pH 7.4) and left at 37° C. for 4 days. (2) 50 μl of Congo red dissolved in the buffer was applied to a 96-well microplate (final concentration, 0.1, 0.3, 1 μM). (3) 100 μl of amyloid β protein was added to it (final concentration 5 μM), and left as such for 30 minutes. (4) 100 μl of a test compound dissolved in the buffer was added to it (final concentration, 10 μM, and left as such for 60 minutes. (5) Using a fluorescence microplate reader (Spectra Max 190 by Molecular Device), the sample was analyzed at the optimum exciting wavelength and the test wavelength that had been previously determined. (6) The fluorescence intensity in the presence of the test compound, amyloid β protein and Congo red is represented by A; that in the presence of the test compound and Congo red is by B; that in the presence of the test compound and amyloid β protein is by C; and that in the presence of only the test compound is by D. The β structure recognition of the test compound is computed according to the following formula: β structure recognition (%) of test compound={(A−B)/(C−D)}×100. (7) It may be said that the test compound having a higher β structure recognition percentage may have higher binding specificity to amyloid β protein.

A short description of data set [2]: Evaluation of Brain-Penetration and Bone-Seeking Properties of the Labeled Compound in Mouse. The format is in vivo. Conditions: for Brain radioactivity / blood radioactivity / bone radioactivity: male ICR mouse, intravenous; for bone radioactivity: thighbone; for Bone-seeking property (bone accumulation) / Washout from brain: mouse; for Bone-seeking property (bone accumulation): 2 to 60 minutes after intravenous injection; for Washout from brain: compared with [^18F] BF-227. On the procedure:
Separated HPLC fractions containing [^18F] THK-702, [^18F] THK-761, [^18F] THK-763 or [^18F] BF-227 obtained by above mentioned synthesis of label were diluted with distilled water (about 20 mL), loaded thereon Sep-PaktC18 cartridge (produced by Waters Corporation). And the cartridge was washed by distilled water (5 to 10 mL), and labeled compound by EtOH (3 to 5 mL). A proper amount of 5% polysorbate 80-ethanol solution was added in the EtOH eluate and solvent was distilled away by a rotary evaporator with heating at 80° C. Obtained residue (mixture of the label compound and polysorbate 80) was dissolved in saline to prepare the labeled compound-containing saline. The radiochemical purity of chemical after the preparation was 95% or more.
Saline containing [^18F] BF-227, [^18F] THK-702, [^18F] THK-761 or [^18F] THK-763 was administered by intravenous injection through the tail vein of male ICR mouse (6 to 7 week), and brain-penetration and bone-seeking properties of each labeled compound was evaluated in the terms of seeking property of radioactivity in brain-tissue and bone tissue at 2, 30, 60 minutes after the injection.
The radiochemical purity of the saline containing the labeled compound used in the present invention was 95% or more, and the specific radioactivity was 18.5 to 148 GBq/μmol. 1.11 to 2.22 Mbq of the labeled compound per mouse was administrated. In evaluation of seeking property of radioactivity, the proportion of radioactivity in unit weight of evaluated tissue to all dosed radioactivity (% Injected Dose/g of tissue; % ID/g) was used as an index. Gamma counter (1480 WIZARD, produced by PerkinElmer, Inc.) was used in the measurement of radioactivity. Experimental procedures will be explained as follows. The labeled compound was administered by intravenous injection through the tail vein, 2, 30 and 60 minutes after the injection, cervical dislocation of the mouse was conducted under ether anesthesia, and blood was collected from heart rapidly. And then, whole brain (containing cerebellum and brain-stem) and thighbone of mouse were extracted. Moreover, radioactivity and the tissue weight of each sample were measured, the resulting data was used for calculating % ID/g.

T1 sequence (P05067 672-711): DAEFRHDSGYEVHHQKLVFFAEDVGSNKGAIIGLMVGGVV

In the case of `CC1(C)c2ccccc2N2CCC(=O)NC21/C=C/c1ccc(N2CCOCC2)cc1` (stereo not shown) [THK-336], in data set [1], the “Relative activity (mutagenicity)” value was “minus”, the “Relative Activity in the presence of S9Mix” value is “minus” and the “Relative Activity in the absence of S9Mix” value is listed as “minus”.

For the compound `N#CC(C#N)=Cc1ncc(/C=C/c2nc3ccc(OCC(CO)CF)cc3o2)s1` (stereo not shown) [THK-683, (E)-2-[2-(2,2-dicyano-ethenylthiazol-5-yl)ethenyl]-6-[(2-fluoromethyl-3-hydoxy)propoxy]benzoxazole], in data set [1], the “Relative activity (mutagenicity)” value was “minus”, the “Relative Activity in the presence of S9Mix” value is on record as “minus” and the “Relative Activity in the absence of S9Mix” value is “minus”.

As to `OCC(CF)Oc1ccc2nc(/C=C/c3cnc(N4CCSCC4)s3)oc2c1` (stereo not shown) [THK-767, (E)-6-[(1-fluoromethyl-2-hydroxy)ethoxy]-2-[2-(2-thiomorpholinothiazol-5-yl)ethenyl]benzoxazole], the activity at 10 µM was 60% at Amyloid β protein 1-40 (Congo red 0.1 μM, read-out: Binding Percentage of Compound in the presence of 0.1 μM CR); 29.9% at Amyloid β protein 1-40 (Congo red 0.3 μM, read-out: Binding Percentage of Compound in the presence of 0.3 μM CR); 15.9% at Amyloid β protein 1-40 (Congo red 1 μM, read-out: Binding Percentage of Compound in the presence of 1 μM CR).

`Cc1ccc2c(c1)sc(-c1ccc(N(C)C)cc1)[n+]2C.[Cl-]` [Thioflavin T, reference compound]: the “Binding Percentage of Compound in the presence of 0.1 μM CR” value on Amyloid β protein 1-40 (Congo red 0.1 μM) is on record as 49.4%. Further, the “Binding Percentage of Compound in the presence of 0.3 μM CR” value at Amyloid β protein 1-40 (Congo red 0.3 μM) was found to be 22.3%. The “Binding Percentage of Compound in the presence of 1 μM CR” value on Amyloid β protein 1-40 (Congo red 1 μM) amounted to 9.3%.

Consider `CN(C)c1ncc(C=Cc2nc3ccc(OCCF)cc3o2)s1` [[^18F]BF-227, 2-[2-(2-dimethylaminothiazol-5-yl)ethenyl]-6-(2-fluoroethoxy)benzoxazol, reference compound], for which, in data set [2] (2 min), the Brain radioactivity was found to be 6.05 % ID/g, the blood radioactivity was determined as 2.93 % ID/g and the bone radioactivity is reported as 1.59 % ID/g. For the same compound, in data set [2] (30 min), the Brain radioactivity worked out at 1.91 % ID/g, the blood radioactivity worked out at 2.14 % ID/g and the bone radioactivity is given as 4.38 % ID/g. For the same compound, in data set [2] (60 min), the Brain radioactivity worked out at 1.67 % ID/g, the blood radioactivity is on record as 2.09 % ID/g and the bone radioactivity was 7.04 % ID/g. Also, the “Bone-seeking property (bone accumulation)” value (from here on “Bone-seeking property”) in data set [2] was “significant time-dependent bone-seeking property after the injection has been found”.

For `OCC(CF)Oc1ccc2nc(/C=C/c3cnc(N4CCOCC4)s3)oc2c1` (stereo not shown) [[^18F]THK-702], in data set [2] (2 min), the Brain radioactivity is given as 4.15 % ID/g, the blood radioactivity worked out at 3.34 % ID/g and the bone radioactivity is reported as 1.95 % ID/g. Moreover, in data set [2] (30 min), the Brain radioactivity is on record as 0.53 % ID/g, the blood radioactivity came out at 1.06 % ID/g and the bone radioactivity was 0.92 % ID/g. For the same compound, in data set [2] (60 min), the Brain radioactivity was 0.35 % ID/g, the blood radioactivity was determined as 0.67 % ID/g and the bone radioactivity is 1.16 % ID/g. Besides, in data set [2], the “Bone-seeking property” value is “have not found” and the Washout from brain entry was “excellent characteristics in washout from brain more than [^18F] BF-227”.

Take `CNc1ncc(/C=C/c2nc3ccc(OC(CO)CF)cc3o2)s1` (stereo not shown) [[^18F]THK-761]: in data set [2] (2 min), the Brain radioactivity was 1.67 % ID/g, the blood radioactivity stood at 3.16 % ID/g and the bone radioactivity is 1.36 % ID/g. In data set [2] (30 min), the Brain radioactivity was determined as 0.22 % ID/g, the blood radioactivity worked out at 0.78 % ID/g and the bone radioactivity amounted to 0.88 % ID/g. In data set [2] (60 min), the Brain radioactivity is 0.13 % ID/g, the blood radioactivity turned out to be 0.34 % ID/g and the bone radioactivity is given as 0.95 % ID/g. In addition, in data set [2], the “Bone-seeking property” value is listed as “have not found” and the Washout from brain result was “excellent characteristics in washout from brain more than [^18F] BF-227”.

On to `CN(C)c1ncc(/C=C/c2nc3ccc(OC(CO)CF)cc3o2)s1` (stereo not shown) [[^18F]THK-763], for which, in data set [2] (2 min), the Brain radioactivity came to 4.64 % ID/g, the blood radioactivity was found to be 3.65 % ID/g and the bone radioactivity is given as 1.84 % ID/g. In data set [2] (30 min), the Brain radioactivity is reported as 0.53 % ID/g, the blood radioactivity was 1.19 % ID/g and the bone radioactivity worked out at 0.88 % ID/g. In data set [2] (60 min), the Brain radioactivity stood at 0.28 % ID/g, the blood radioactivity was found to be 0.64 % ID/g and the bone radioactivity is given as 1.38 % ID/g. In data set [2], the “Bone-seeking property” value is “have not found” and the Washout from brain result is “excellent characteristics in washout from brain more than [^18F] BF-227”.
